Our source for the melting point values is patent publication US6855710B2, “Substituted indolines with an inhibitory effect on various kinases and complexes of CDKs” (Boehringer Ingelheim Pharma KG, priority 1998, dated 2005).

A word on the melting point: it is the temperature, or range, at which the solid turns liquid.

As for `CCS(=O)(=O)N(CC(=O)N(C)CCN(C)C)c1ccc(N/C(=C2\C(=O)Nc3ccccc32)c2ccccc2)cc1` [Example 302, (Z)-3-{1-[4-(N—((N-(2-dimethylaminoethyl)-N-methyl-amino)-carbonylmethyl)-N-ethylsulphonyl-amino)-phenylamino]-1-phenyl-methylidene}-2-indolinone], the melting point lay within 170 to 172 °C.
For `CN(C)C(=O)CN(c1ccc(N/C(=C2\C(=O)Nc3ccc([N+](=O)[O-])cc32)c2ccccc2)cc1)S(=O)(=O)Cc1ccccc1` [Example 303, (Z)-3-{1-[4-(N-(dimethylaminocarbonylmethyl)-N-benzylsulphonyl-amino)-phenylamino]-1-phenyl-methylidene}-5-nitro-2-indolinone] the value was 159 to 161 °C.
`CC(C)S(=O)(=O)N(CC(=O)N(C)C)c1ccc(N/C(=C2\C(=O)Nc3ccccc32)c2ccccc2)cc1` [Example 304, (Z)-3-{1-[4-(N-(dimethylaminocarbonylmethyl)-N-isopropylsulphonyl-amino)-phenylamino]-1-phenyl-methylidene}-2-indolinone]: the melting point fell in the range of 146 to 148 °C.
As for `CCCS(=O)(=O)N(CC(=O)N(C)C)c1ccc(N/C(=C2\C(=O)Nc3ccccc32)c2ccccc2)cc1` [Example 305, (Z)-3-{1-[4-(N-(dimethylaminocarbonylmethyl)-N-propylsulphonyl-amino)-phenylamino]-1-phenyl-methylidene}-2-indolinone], the melting point was in the range of 178 to 180 °C.
In the case of `CCCCS(=O)(=O)N(CC(=O)N(C)C)c1ccc(N/C(=C2\C(=O)Nc3ccccc32)c2ccccc2)cc1` [Example 306, (Z)-3-{1-[4-(N-(dimethylaminocarbonylmethyl)-N-butylsulphonyl-amino)-phenylamino]-1-phenyl-methylidene}-2-indolinone], the melting point lay within 121 to 123 °C.
In the case of `CCS(=O)(=O)N(CCN(C)C)c1ccc(N/C(=C2\C(=O)Nc3ccccc32)c2ccccc2)cc1` [Example 307, (Z)-3-{1-[4-(N-(2-dimethylaminoethyl)-N-ethylsulphonyl-amino)-phenylamino]-1-phenyl-methylidene}-2-indolinone], the melting point stood at 245 °C.
As for `CCS(=O)(=O)N(CCN1CCOCC1)c1ccc(N/C(=C2\C(=O)Nc3ccccc32)c2ccccc2)cc1` [Example 308, (Z)-3-{1-[4-(N-(2-morpholinoethyl)-N-ethylsulphonyl-amino)-phenylamino]-1-phenyl-methylidene}-2-indolinone], the figure is 222 to 224 °C.
As for `CC(C)S(=O)(=O)N(CCN(C)C)c1ccc(N/C(=C2\C(=O)Nc3ccccc32)c2ccccc2)cc1` [Example 309, (Z)-3-{1-[4-(N-(2-dimethylaminoethyl)-N-isopropylsulphonyl-amino)-phenylamino]-1-phenyl-methylidene}-2-indolinone], the melting point was 247 °C.
As for `CCCS(=O)(=O)N(CCN(C)C)c1ccc(N/C(=C2\C(=O)Nc3ccc([N+](=O)[O-])cc32)c2ccccc2)cc1` [Example 310, (Z)-3-{1-[4-(N-(2-dimethylaminoethyl)-N-propylsulphonyl-amino)-phenylamino]-1-phenyl-methylidene}-5-nitro-2-indolinone], the figure is 212 °C; as for `CCCS(=O)(=O)N(CCN(C)C)c1ccc(N/C(=C2\C(=O)Nc3ccccc32)c2ccccc2)cc1` [Example 311, (Z)-3-{1-[4-(N-(2-dimethylaminoethyl)-N-propylsulphonyl-amino)-phenylamino]-1-phenyl-methylidene}-2-indolinone], 245 °C.
As for `CN(C)CCN(c1ccc(N/C(=C2\C(=O)Nc3ccccc32)c2ccccc2)cc1)S(=O)(=O)c1ccccc1` [Example 312, (Z)-3-{1-[4-(N-(2-dimethylaminoethyl)-N-phenylsulphonyl-amino)-phenylamino]-1-phenyl-methylidene}-2-indolinone], the figure is 241 to 243 °C; as for `CN(C)CCN(c1ccc(N/C(=C2\C(=O)Nc3ccc([N+](=O)[O-])cc32)c2ccccc2)cc1)S(=O)(=O)Cc1ccccc1` [Example 313, (Z)-3-{1-[4-(N-(2-dimethylaminoethyl)-N-benzylsulphonyl-amino)-phenylamino]-1-phenyl-methylidene}-5-nitro-2-indolinone], 248 °C; as for `CN(C)CCN(c1ccc(N/C(=C2\C(=O)Nc3ccccc32)c2ccccc2)cc1)S(=O)(=O)Cc1ccccc1` [Example 314, (Z)-3-{1-[4-(N-(2-dimethylaminoethyl)-N-benzylsulphonyl-amino)-phenylamino]-1-phenyl-methylidene}-2-indolinone], 244 °C.
Take `CCS(=O)(=O)N(CCCN(C)C)c1ccc(N/C(=C2\C(=O)Nc3ccccc32)c2ccccc2)cc1` [Example 316, (Z)-3-{1-[4-(N-(3-dimethylaminopropyl)-N-ethylsulphonyl-amino)-phenylamino]-1-phenyl-methylidene}-2-indolinone]: the melting point is 194 °C.
For `CCOC(=O)CN(c1cccc(N/C(=C2\C(=O)Nc3ccccc32)c2ccccc2)c1)S(C)(=O)=O` [Example 317, (Z)-3-{1-[3-(N-ethoxycarbonylmethyl-N-methylsulphonyl-amino)-phenylamino]-1-phenyl-methylidene}-2-indolinone] the value was 188 to 190 °C; for `CS(=O)(=O)N(CC(=O)O)c1cccc(N/C(=C2\C(=O)Nc3ccccc32)c2ccccc2)c1` [Example 318, (Z)-3-{1-[3-(N-carboxymethyl-N-methylsulphonyl-amino)-phenylamino]-1-phenyl-methylidene}-2-indolinone], 270 °C (dec.).
`CS(=O)(=O)N(CC(N)=O)c1cccc(N/C(=C2\C(=O)Nc3ccccc32)c2ccccc2)c1` [Example 319, (Z)-3-{1-[3-(N-aminocarbonylmethyl-N-methylsulphonyl-amino)-phenylamino]-1-phenyl-methylidene}-2-indolinone] displayed a melting point of 227 to 230 °C.
For `CNC(=O)CN(c1cccc(N/C(=C2\C(=O)Nc3ccccc32)c2ccccc2)c1)S(C)(=O)=O` [Example 320, (Z)-3-{1-[3-(N-methylaminocarbonylmethyl-N-methylsulphonyl-amino)-phenylamino]-1-phenyl-methylidene}-2-indolinone], the melting point turned out to be 163 °C.
As for `CN(C)C(=O)CN(c1cccc(N/C(=C2\C(=O)Nc3ccccc32)c2ccccc2)c1)S(C)(=O)=O` [Example 321, (Z)-3-{1-[3-(N-dimethylaminocarbonylmethyl-N-methylsulphonyl-amino)-phenylamino]-1-phenyl-methylidene}-2-indolinone], the figure is 213 to 216 °C; as for `CN(C)CCNC(=O)CN(c1cccc(N/C(=C2\C(=O)Nc3ccccc32)c2ccccc2)c1)S(C)(=O)=O` [Example 322, (Z)-3-{1-[3-(N-(2-dimethylamino-ethylaminocarbonylmethyl)-N-methylsulphonyl-amino)-phenylamino]-1-phenyl-methylidene}-2-indolinone], 179 to 181 °C; as for `CN(C)CCN(C)C(=O)CN(c1cccc(N/C(=C2\C(=O)Nc3ccccc32)c2ccccc2)c1)S(C)(=O)=O` [Example 323, (Z)-3-{1-[3-(N—((N-(2-dimethylaminoethyl)-N-methyl-amino)-carbonylmethyl)-N-methylsulphonyl-amino)-phenylamino]-1-phenyl-methylidene}-2-indolinone], 197 to 199 °C.
Turning to `CN(C)CCN(c1cccc(N/C(=C2\C(=O)Nc3ccccc32)c2ccccc2)c1)S(C)(=O)=O` [Example 324, (Z)-3-{1-[3-(N-(2-dimethylaminoethyl)-N-methylsulphonyl-amino)-phenylamino]-1-phenyl-methylidene}-2-indolinone], the melting point was 208 to 211 °C.
Turning to `CS(=O)(=O)N(CCN1CCOCC1)c1cccc(N/C(=C2\C(=O)Nc3ccccc32)c2ccccc2)c1` [Example 325, (Z)-3-{1-[3-(N-(2-morpholinoethyl)-N-methylsulphonyl-amino)-phenylamino]-1-phenyl-methylidene}-2-indolinone], the melting point is 177 to 179 °C.
Compound `CN(C)CCNc1ccc(N/C(=C2\C(=O)Nc3ccc([N+](=O)[O-])cc32)c2ccccc2)cc1` [Example 326, (Z)-3-{1-[4-(2-dimethylamino-ethylamino)-phenylamino]-1-phenyl-methylidene}-5-nitro-2-indolinone] yielded a melting point of 227 to 229 °C.
For `CN(C)CCN(C=O)c1ccc(N/C(=C2\C(=O)Nc3ccc([N+](=O)[O-])cc32)c2ccccc2)cc1` [Example 327, (Z)-3-{1-[4-(N-(2-dimethylaminoethyl)-N-formyl-amino)-phenylamino]-1-phenyl-methylidene}-5-nitro-2-indolinone] the value was 215 to 218 °C; for `CC(=O)N(CCN(C)C)c1ccc(N/C(=C2\C(=O)Nc3ccc([N+](=O)[O-])cc32)c2ccccc2)cc1` [Example 328, (Z)-3-{1-[4-(N-(2-dimethylaminoethyl)-N-acetyl-amino)-phenylamino]-1-phenyl-methylidene}-5-nitro-2-indolinone], 228 to 230 °C; for `CCC(=O)N(CCN(C)C)c1ccc(N/C(=C2\C(=O)Nc3ccc([N+](=O)[O-])cc32)c2ccccc2)cc1` [Example 329, (Z)-3-{1-[4-(N-(2-dimethylaminoethyl)-N-propionyl-amino)-phenylamino]-1-phenyl-methylidene}-5-nitro-2-indolinone], 263 to 265 °C.
`CC(C)C(=O)N(CCN(C)C)c1ccc(N/C(=C2\C(=O)Nc3ccc([N+](=O)[O-])cc32)c2ccccc2)cc1` [Example 330, (Z)-3-{1-[4-(N-(2-dimethylaminoethyl)-N-isopropylcarbonyl-amino)-phenylamino]-1-phenyl-methylidene}-5-nitro-2-indolinone] gave a melting point of 296 to 298 °C.
As for `CCCC(=O)N(CCN(C)C)c1ccc(N/C(=C2\C(=O)Nc3ccc([N+](=O)[O-])cc32)c2ccccc2)cc1` [Example 331, (Z)-3-{1-[4-(N-(2-dimethylaminoethyl)-N-propylcarbonyl-amino)-phenylamino]-1-phenyl-methylidene}-5-nitro-2-indolinone], the figure is 275 to 277 °C.
